Laboratory results: US9023789B2, “Amylin analogs and pharmaceutical compositions thereof” (Novo Nordisk A/S, priority 2012, dated 2015)
pIC50: −log10 of the molar value. Numbered stars: 1 amine (or outer) side, 2 acyl side, 3 side chain; on linkers, the order of the positions; unused ones are H or OH. Bridge positions count the residues as written; N and C are the ends. Side chains are listed from the residue outwards. Peptide text beside a SMILES is read from it. * marks the point of attachment. C20 diacid = O=C(O)CCCCCCCCCCCCCCCCCCC(=O)*; γGlu = O=C(O)[C@H](CCC(=O)[*:2])N[*:1]

Legend:
[1] = molecular target: T1, human amylin 3(a) receptor (human calcitonin receptor + RAMP-3) in BHK570 cells (Homo sapiens, UniProt O60896+P30988); assay: ASSAY (II)a functional assay, human amylin receptor (CRE luciferase); format: cell-based
T1 construct: expressed in transfected cells
Outline: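 BHK cells stably carrying a CRE-luciferase reporter plus calcitonin receptor, or calcitonin receptor with RAMP-3 for the amylin 3(a) receptor, were seeded and kept overnight at 37° C. Compounds were added in assay medium with 10% FBS and 10 mM Hepes, pH 7.4, for 3 hours at 37° C, then luminescence was counted.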

[2] = molecular target: T2, human amylin receptor (membranes from Amylin 3(a)/CRE-luc cells) (Homo sapiens, UniProt O60896+P30988); assay: ASSAY (V) binding to the human amylin receptor (SPA, 125I-rat amylin);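 also: competition binding of cell membranes (35 ng/µL) mixed with SPA beads in 384-well plates at 40 µL total volume, read by scintillation counting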
T2 construct: expressed in transfected cells
T2 sequence (P30988 25-474): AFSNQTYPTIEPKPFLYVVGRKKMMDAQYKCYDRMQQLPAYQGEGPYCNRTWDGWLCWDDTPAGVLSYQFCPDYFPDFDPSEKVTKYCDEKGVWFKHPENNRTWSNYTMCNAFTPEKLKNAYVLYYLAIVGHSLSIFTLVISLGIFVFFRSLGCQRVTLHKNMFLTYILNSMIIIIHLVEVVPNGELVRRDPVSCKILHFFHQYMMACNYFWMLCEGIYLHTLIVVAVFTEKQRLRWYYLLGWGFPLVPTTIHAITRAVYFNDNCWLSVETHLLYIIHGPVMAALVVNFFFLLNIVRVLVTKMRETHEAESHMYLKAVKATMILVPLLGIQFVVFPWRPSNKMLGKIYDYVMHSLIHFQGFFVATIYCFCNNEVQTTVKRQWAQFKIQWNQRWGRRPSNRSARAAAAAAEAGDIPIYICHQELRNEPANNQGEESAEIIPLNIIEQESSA
T2 sequence (O60896 24-148 partner): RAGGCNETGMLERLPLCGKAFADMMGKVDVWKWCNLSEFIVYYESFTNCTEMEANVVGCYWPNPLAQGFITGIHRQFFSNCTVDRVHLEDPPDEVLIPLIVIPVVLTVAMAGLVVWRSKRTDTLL

rat calcitonin receptor = molecular target: T3, rat calcitonin receptor (Rattus norvegicus, UniProt P32214); assay: ASSAY (VIII) binding to the rat calcitonin receptor; details: Table 7, read-out: rCTR bind IC50
T3 construct: expressed in transfected cells; host or cells: BHK tk'ts 13 (transient, FuGENE 6), membranes
T3 sequence (P32214 25-479 isoform P32214-2 limits assumed): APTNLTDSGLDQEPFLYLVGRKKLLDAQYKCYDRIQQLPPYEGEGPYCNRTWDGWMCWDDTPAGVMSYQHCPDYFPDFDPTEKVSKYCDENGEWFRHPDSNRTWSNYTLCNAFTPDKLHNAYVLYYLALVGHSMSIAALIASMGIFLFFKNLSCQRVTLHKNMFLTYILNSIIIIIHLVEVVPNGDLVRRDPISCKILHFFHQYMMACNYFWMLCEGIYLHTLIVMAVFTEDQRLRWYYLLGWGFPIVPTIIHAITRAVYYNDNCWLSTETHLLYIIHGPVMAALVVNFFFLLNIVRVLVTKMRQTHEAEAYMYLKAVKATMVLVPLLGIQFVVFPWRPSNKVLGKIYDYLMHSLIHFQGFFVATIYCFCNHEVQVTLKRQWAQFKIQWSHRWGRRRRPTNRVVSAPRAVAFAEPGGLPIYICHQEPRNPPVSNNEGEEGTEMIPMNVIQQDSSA
Outline: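 Rat calcitonin receptor is expressed transiently in BHK tk′ts 13 cells cultured in DMEM with 10% FBS. Roughly two days (approximately 48 hours) post-transfection, cells are harvested for membrane preparation.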

[3] = hCTR funct. EC50 / hAmylin-R funct. EC50
[4] = hCTR funct. EC50 divided by hAmylin-R funct. EC50
[5] = hCTR funct. EC50 over hAmylin-R funct. EC50
[6] = human functional selectivity: hCTR funct. EC50 / hAmylin-R funct. EC50
[7] = Table 5, selectivity, hCTR bind IC50 / hAmylin-R bind IC50
[8] = Table 5a, selectivity, hCTR bind IC50 / hAmylin-R bind IC50
[9] = Table 5b, selectivity, hCTR bind IC50 / hAmylin-R bind IC50
[10] = Table 5c, selectivity, hCTR bind IC50 / hAmylin-R bind IC50
[11] = Table 7, human binding selectivity, included for comparison
[12] = Table 7a (preferred compounds), human binding selectivity, included for comparison
[13] = ratio of human calcitonin receptor binding IC50 to human amylin receptor binding IC50

Row | Compound | Ratio hCT/hAmylin funct. [1, 3] | Ratio hCT/hAmylin funct. [1, 4] | Ratio hCT/hAmylin funct. [1, 5] | Ratio hCT/hAmylin funct. [1, 6] | Ratio hCT/hAmylin binding [2, 7] | Ratio hCT/hAmylin binding [2, 8] | Ratio hCT/hAmylin binding [2, 9] | Ratio hCT/hAmylin binding [2, 10] | Ratio hCT/hAmylin binding [2, 11] | Ratio hCT/hAmylin binding [2, 12] | Ratio hCT/hAmylin binding [2, 13] | pIC50 (rat calcitonin receptor)
1 | CC[C@H](C)[C@H](NC(=O)[C@H](C)NC(=O)CNC(=O)[C@H](Cc1ccccc1)NC(=O)[C@H](CC(N)=O)NC(=O)[C@@H]1CCCN1C(=O)[C@H](CO)NC(=O)[C@H](CO)NC(=O)[C@H](Cc1c[nH]cn1)NC(=O)[C@H](CCCNC(=N)N)NC(=O)[C@H](CC(C)C)NC(=O)[C@H](Cc1ccccc1)NC(=O)[C@H](Cc1c[nH]cn1)NC(=O)[C@H](C)NC(=O)[C@H](CC(C)C)NC(=O)[C@H](CCCNC(=N)N)NC(=O)[C@H](CCC(N)=O)NC(=O)[C@@H](NC(=O)[C@H](C)NC(=O)[C@@H]1CSSC[C@H](NC(=O)[C@H](CCCNC(=N)N)NC(=O)CNC(=O)CC[C@H](NC(=O)CCCCCCCCCCCCCCCCCCC(=O)O)C(=O)O)C(=O)N[C@@H](CC(N)=O)C(=O)N[C@@H]([C@@H](C)O)C(=O)N[C@@H](C)C(=O)N[C@@H]([C@@H](C)O)C(=O)N1)[C@@H](C)O)C(=O)N1CCC[C@H]1C(=O)N[C@@H](CO)C(=O)N[C@@H](CO)C(=O)N[C@H](C(=O)N[C@@H](CC(N)=O)C(=O)N[C@H](C(=O)NCC(=O)N1CCC[C@H]1C(=O)N[C@@H](CC(N)=O)C(=O)N[C@H](C(=O)N[C@@H](Cc1ccc(O)cc1)C(N)=O)[C@@H](C)O)C(C)C)[C@@H](C)O [Example 102] ({C20 diacid-γGlu}-GRCNTATCATQRLAHFLRHSSPNFGAIPSSTNVGPNTY-NH2; disulfide 3-8 (inferred)) | 2.9 | 2.9 | 2.9 | 2.9 | 36.2 | 36.2 | 36.2 | 36.2 | 36.2 | 36.2 | 36.2 | 7.18
2 | CC[C@H](C)[C@H](NC(=O)[C@H](C)NC(=O)CNC(=O)[C@H](Cc1ccccc1)NC(=O)[C@H](CC(N)=O)NC(=O)[C@@H]1CCCN1C(=O)[C@H](CO)NC(=O)[C@H](CO)NC(=O)[C@H](Cc1c[nH]cn1)NC(=O)[C@H](CCCNC(=N)N)NC(=O)[C@H](CC(C)C)NC(=O)[C@H](Cc1ccccc1)NC(=O)[C@H](CC(N)=O)NC(=O)[C@H](C)NC(=O)[C@H](CC(C)C)NC(=O)[C@H](CCCNC(=N)N)NC(=O)[C@H](CCC(N)=O)NC(=O)[C@@H](NC(=O)[C@H](C)NC(=O)[C@@H]1CSSC[C@H](NC(=O)[C@@H](N)CCCCNC(=O)CC[C@H](NC(=O)CCCCCCCCCCCCC(=O)O)C(=O)O)C(=O)N[C@@H](CC(N)=O)C(=O)N[C@@H]([C@@H](C)O)C(=O)N[C@@H](C)C(=O)N[C@@H]([C@@H](C)O)C(=O)N1)[C@@H](C)O)C(=O)N1CCC[C@H]1C(=O)N[C@@H](CO)C(=O)N[C@@H](CO)C(=O)N[C@H](C(=O)N[C@@H](CC(N)=O)C(=O)N[C@H](C(=O)NCC(=O)N[C@@H](Cc1c[nH]cn1)C(=O)N[C@@H](CC(N)=O)C(=O)N[C@H](C(=O)N[C@@H](Cc1ccc(O)cc1)C(N)=O)[C@@H](C)O)C(C)C)[C@@H](C)O [Example 112] | – | 38.8 | 38.8 | 38.8 | 23.5 | 23.5 | 23.5 | 23.5 | 23.5 | 23.5 | 23.5 | 6.15
3 | CC[C@H](C)[C@H](NC(=O)[C@H](C)NC(=O)CNC(=O)[C@H](Cc1ccccc1)NC(=O)[C@H](CC(N)=O)NC(=O)[C@@H]1CCCN1C(=O)[C@H](CO)NC(=O)[C@H](CO)NC(=O)[C@H](Cc1c[nH]cn1)NC(=O)[C@H](CCCNC(=N)N)NC(=O)[C@H](CC(C)C)NC(=O)[C@H](Cc1ccccc1)NC(=O)[C@H](Cc1c[nH]cn1)NC(=O)[C@H](C)NC(=O)[C@H](CC(C)C)NC(=O)[C@H](CCCNC(=N)N)NC(=O)[C@H](CCC(N)=O)NC(=O)[C@@H](NC(=O)[C@H](C)NC(=O)[C@@H]1CSSC[C@H](NC(=O)[C@@H](N)CCCCNC(=O)CC[C@H](NC(=O)CCCCCCCCCCCCCCCCCCC(=O)O)C(=O)O)C(=O)N[C@@H](CC(N)=O)C(=O)N[C@@H]([C@@H](C)O)C(=O)N[C@@H](C)C(=O)N[C@@H]([C@@H](C)O)C(=O)N1)[C@@H](C)O)C(=O)N1CCC[C@H]1C(=O)N[C@@H](CO)C(=O)N[C@@H](CO)C(=O)N[C@H](C(=O)N1CCC[C@H]1C(=O)N[C@H](C(=O)NCC(=O)N1CCC[C@H]1C(=O)N[C@@H](CC(N)=O)C(=O)N[C@H](C(=O)N[C@@H](Cc1ccc(O)cc1)C(N)=O)[C@@H](C)O)C(C)C)[C@@H](C)O [Example 116] (H-K([γGlu-C20 diacid])CNTATCATQRLAHFLRHSSPNFGAIPSSTPVGPNTY-NH2; disulfide 2-7) | 4.9 | 4.9 | – | 4.9 | 24.8 | 24.8 | 24.8 | 24.8 | 24.8 | 24.8 | 24.8 | 8.04
4 | CC[C@H](C)[C@H](NC(=O)[C@H](C)NC(=O)CNC(=O)[C@H](Cc1ccccc1)NC(=O)[C@H](CC(N)=O)NC(=O)[C@@H]1CCCN1C(=O)[C@H](CO)NC(=O)[C@H](CO)NC(=O)[C@H](Cc1c[nH]cn1)NC(=O)[C@H](CCCNC(=N)N)NC(=O)[C@H](CC(C)C)NC(=O)[C@H](Cc1ccccc1)NC(=O)[C@H](CCC(=O)O)NC(=O)[C@H](C)NC(=O)[C@H](CC(C)C)NC(=O)[C@H](CCCNC(=N)N)NC(=O)[C@H](CCC(N)=O)NC(=O)[C@@H](NC(=O)[C@H](C)NC(=O)[C@@H]1CSSC[C@H](NC(=O)[C@@H](N)CCCCNC(=O)CC[C@H](NC(=O)CC[C@H](NC(=O)CCCCCCCCCCCCCCCCCCC(=O)O)C(=O)O)C(=O)O)C(=O)N[C@@H](CC(N)=O)C(=O)N[C@@H]([C@@H](C)O)C(=O)N[C@@H](C)C(=O)N[C@@H]([C@@H](C)O)C(=O)N1)[C@@H](C)O)C(=O)N1CCC[C@H]1C(=O)N[C@@H](CO)C(=O)N[C@@H](CO)C(=O)N[C@H](C(=O)N[C@@H](CC(N)=O)C(=O)N[C@H](C(=O)NCC(=O)N1CCC[C@H]1C(=O)N[C@@H](CCC(=O)O)C(=O)N[C@H](C(=O)N1CCC[C@H]1C(N)=O)[C@@H](C)O)C(C)C)[C@@H](C)O [Example 125] (H-K([γGlu-γGlu-C20 diacid])CNTATCATQRLAEFLRHSSPNFGAIPSSTNVGPETP-NH2; disulfide 2-7 (inferred); N-terminus assumed) | 0.8 | 0.8 | 0.8 | 0.8 | 0.4 | – | – | – | 0.4 | 0.4 | – | 8.79
